From patent US9079905B2, “Compounds for the treatment of CNS disorders” (Boehringer Ingelheim International GmbH, priority 2008, dated 2015)

Biological target: T1, human PDE9A2 (Homo sapiens, UniProt O76083)
T1 construct: made in house; host or cells: Sf9 insect cells (infected; crude lysate used as enzyme source)
Test: PDE9A2 enzymatic activity assay (scintillation proximity assay)
Type: biochemical
Conditions: for IC50: specific IC50 value is within the given range
Procedure: The PDE9A2 enzymatic activity assay was run as scintillation proximity assay (SPA), in general according to the protocol of the manufacturer (Amersham Biosciences, product number: TRKQ 7100).
As enzyme source, lysate (PBS with 1% Triton X-100 supplemented with protease inhibitors, cell debris removed by centrifugation at 13.000 rpm for 30 min) of SF 9 cell expressing the human PDE9A2 was used. The total protein amount included in the assay varied upon infection and production efficacy of the SF9 cells and lay in the range of 0.1-100 ng.
In general, the assay conditions were as follows: • total assay volume: 40 microliter • protein amount: 0.1-50 ng • substrate concentration (cGMP): 20 nanomolar; ˜1 mCi/1 • incubation time: 60 min at room temperature • final DMSO concentration: 0.2-1
The assays were run in 384-well format. The test reagents as well as the enzyme and the substrate were diluted in assay buffer. The assay buffer contained 50 mM Tris, 8.3 mM MgCl2, 1.7 mM EGTA, 0.1% BSA, 0.05% Tween 20; the pH of assay buffer was adjusted to 7.5. The reaction was stopped by applying a PDE9 specific inhibitor (e.g. compounds according to WO04099210 or WO04099211) in excess.
The activity of the positive control (minus the negative control=background) is set to 100% and activity in the presence of test compound is expressed relative to these 100%. Within this setting, an inhibition above 100% might be possible due to the nature of the variation of the positive control within the assay. In the following inhibition of PDE 9A2 is presented for a concentration at 10 μM, if not indicated otherwise.
IC50 can be calculated with GraphPadPrism or other suited software setting the positive control as 100 and the negative control as 0. For calculation of IC50 dilutions of the test compounds (substrates) are to be selected and tested following the aforementioned protocol.

[1] = read-out: % Inhibition of PDE 9A2

T1 sequence (O76083 1-533 isoform O76083-2): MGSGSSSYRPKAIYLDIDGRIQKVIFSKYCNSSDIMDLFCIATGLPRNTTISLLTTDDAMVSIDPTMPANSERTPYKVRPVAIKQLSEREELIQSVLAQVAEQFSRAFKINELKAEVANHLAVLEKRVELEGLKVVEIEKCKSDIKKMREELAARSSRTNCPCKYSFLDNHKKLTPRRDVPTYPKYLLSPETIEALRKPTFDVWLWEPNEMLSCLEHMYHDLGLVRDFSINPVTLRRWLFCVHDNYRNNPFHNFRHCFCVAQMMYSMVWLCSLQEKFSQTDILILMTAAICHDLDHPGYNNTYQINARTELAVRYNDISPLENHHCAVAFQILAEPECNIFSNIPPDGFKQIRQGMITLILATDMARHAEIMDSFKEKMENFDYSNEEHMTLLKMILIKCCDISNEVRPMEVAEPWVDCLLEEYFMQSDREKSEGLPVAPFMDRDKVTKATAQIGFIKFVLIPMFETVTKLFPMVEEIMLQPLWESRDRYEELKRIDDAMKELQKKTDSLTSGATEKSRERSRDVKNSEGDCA

| Structure (SMILES) | inhibition at 10 µM [1] | IC50 | inhibition at 1 µM (at 1 μM, read-out: % Inhibition of PDE 9A2) |
| --- | --- | --- | --- |
| COc1cccc(Cl)c1Cc1nc2c(cnn2C2CCC(F)(F)CC2)c(=O)[nH]1 [Example 37] | 97% | 1 to 100 nM |  |
| O=C(O)Cc1ccccc1Cc1nc2c(cnn2C2CCC(F)(F)CC2)c(=O)[nH]1 [Example 38] | 85% | 101 to 1500 nM |  |
| CC(Cc1nc2c(cnn2C2CCC(F)(F)CC2)c(=O)[nH]1)C(=O)N1CCCCC1 (centres unmarked) [Example 39] | 84% | 101 to 1500 nM |  |
| O=c1[nH]c(Cc2ccc(F)cc2Br)nc2c1cnn2C1CCC(F)(F)CC1 [Example 44] | 92% | 101 to 1500 nM |  |
| O=c1[nH]c(Cc2cc(F)ccc2Br)nc2c1cnn2C1CCC(F)(F)CC1 [Example 45] | 97% | 1 to 100 nM |  |
| O=c1[nH]c(Cc2ncccc2Br)nc2c1cnn2C1CCC(F)(F)CC1 [Example 46] | 98% | 1 to 100 nM |  |
| COc1ccccc1Cc1nc2c(cnn2C2CCC(F)(F)CC2)c(=O)[nH]1 [Example 48-3] | 95% | 1 to 100 nM |  |
| COc1ccc(F)cc1Cc1nc2c(cnn2C2CCC(F)(F)CC2)c(=O)[nH]1 [Example 48-4] | 99% | 1 to 100 nM |  |
| N#Cc1ccc(-c2ccc(F)cc2Cc2nc3c(cnn3C3CCC(F)(F)CC3)c(=O)[nH]2)cn1 [Example 57] | 101% | 1 to 100 nM |  |
| COc1cncc(-c2ccc(F)cc2Cc2nc3c(cnn3C3CCC(F)(F)CC3)c(=O)[nH]2)c1 [Example 58] | 101% | 1 to 100 nM |  |
| COc1cc(-c2cc(F)ccc2Cc2nc3c(cnn3C3CCC(F)(F)CC3)c(=O)[nH]2)ccn1 [Example 59] | 95% | 101 to 1500 nM |  |
| NC(=O)c1ccc(-c2ccc(F)cc2Cc2nc3c(cnn3C3CCC(F)(F)CC3)c(=O)[nH]2)cn1 [Example 61] | 99% | 1 to 100 nM |  |
| NC(=O)c1ccc(-c2cc(F)ccc2Cc2nc3c(cnn3C3CCC(F)(F)CC3)c(=O)[nH]2)cn1 [Example 62] | 100% | 1 to 100 nM |  |
| COc1cc(-c2ccc(F)cc2Cc2nc3c(cnn3C3CCC(F)(F)CC3)c(=O)[nH]2)ccn1 [Example 64] | 97% | 1 to 100 nM |  |
| COc1cncc(-c2cc(F)ccc2Cc2nc3c(cnn3C3CCC(F)(F)CC3)c(=O)[nH]2)c1 [Example 67] | 99% | 1 to 100 nM |  |
| COc1ccc(-c2cc(F)ccc2Cc2nc3c(cnn3C3CCC(F)(F)CC3)c(=O)[nH]2)cc1 [Example 68] | 96% | 101 to 1500 nM |  |
| O=c1[nH]c(Cc2cc(F)ccc2-c2ccncc2)nc2c1cnn2C1CCC(F)(F)CC1 [Example 70] | 100% | 1 to 100 nM |  |
| Cn1nccc1-c1ccc(F)cc1Cc1nc2c(cnn2C2CCC(F)(F)CC2)c(=O)[nH]1 [Example 72-2] | 98% | 1 to 100 nM |  |
| Cn1cc(-c2ccc(F)cc2Cc2nc3c(cnn3C3CCC(F)(F)CC3)c(=O)[nH]2)cn1 [Example 72-3] | 98% | 1 to 100 nM |  |
| O=c1[nH]c(Cc2cc(F)ccc2-c2ccnc(F)c2)nc2c1cnn2C1CCC(F)(F)CC1 [Example 72-4] | 101% | 1 to 100 nM |  |
| COc1ccc(-c2ccc(F)cc2Cc2nc3c(cnn3C3CCC(F)(F)CC3)c(=O)[nH]2)cc1 [Example 72-5] | 99% | 1 to 100 nM |  |
| N#Cc1ccc(-c2ccc(F)cc2Cc2nc3c(cnn3C3CCC(F)(F)CC3)c(=O)[nH]2)cc1 [Example 72-6] |  | 1 to 100 nM | 96% |
| COc1ncccc1-c1ccc(F)cc1Cc1nc2c(cnn2C2CCC(F)(F)CC2)c(=O)[nH]1 [Example 72-8] | 98% | 1 to 100 nM |  |
| O=c1[nH]c(Cc2cc(F)ccc2-c2cncc(F)c2)nc2c1cnn2C1CCC(F)(F)CC1 [Example 72-9] | 100% | 1 to 100 nM |  |
| O=c1[nH]c(Cc2ccc(F)cc2-c2ccncc2)nc2c1cnn2C1CCC(F)(F)CC1 [Example 72] | 97% | 101 to 1500 nM |  |
| CN(C)C(=O)Cc1ccccc1Cc1nc2c(cnn2C2CCC(F)(F)CC2)c(=O)[nH]1 [Example 79] | 95% | 101 to 1500 nM |  |
| CN1CCN(C(=O)Cc2ccccc2Cc2nc3c(cnn3C3CCC(F)(F)CC3)c(=O)[nH]2)CC1 [Example 80] | 91% | 101 to 1500 nM |  |
| O=C(Cc1ccccc1Cc1nc2c(cnn2C2CCC(F)(F)CC2)c(=O)[nH]1)N1CCCCC1 [Example 81] | 95% | 101 to 1500 nM |  |
| O=c1[nH]c(Cc2ccccc2CCO)nc2c1cnn2C1CCC(F)(F)CC1 [Example 83] | 88% | 101 to 1500 nM |  |
| COC(=O)Cc1ccccc1Cc1nc2c(cnn2C2CCC(F)(F)CC2)c(=O)[nH]1 [Example 84] | 81% | 101 to 1500 nM |  |

The remaining lines, values ahead:

| inhibition at 10 µM [1] | IC50 | inhibition at 1 µM (at 1 μM, read-out: % Inhibition of PDE 9A2) | Structure (SMILES) |
| --- | --- | --- | --- |
| 100% | 1 to 100 nM |  | COc1cncc(-c2ccccc2Cc2nc3c(cnn3C3CCC(F)(F)CC3)c(=O)[nH]2)c1 [Example 53] |
| 102% | 1 to 100 nM |  | N#Cc1ccc(-c2ccccc2Cc2nc3c(cnn3C3CCC(F)(F)CC3)c(=O)[nH]2)cn1 [Example 54] |
| 100% | 1 to 100 nM |  | COc1cc(-c2ccccc2Cc2nc3c(cnn3C3CCC(F)(F)CC3)c(=O)[nH]2)ccn1 [Example 55] |
| 99% | 1 to 100 nM |  | COc1ccc(-c2ccccc2Cc2nc3c(cnn3C3CCC(F)(F)CC3)c(=O)[nH]2)cn1 [Example 56] |
| 93% | 101 to 1500 nM |  | N#Cc1ccc(-c2cc(F)ccc2Cc2nc3c(cnn3C3CCC(F)(F)CC3)c(=O)[nH]2)cn1 [Example 63] |
| 101% | 1 to 100 nM |  | COc1ccc(-c2ccc(F)cc2Cc2nc3c(cnn3C3CCC(F)(F)CC3)c(=O)[nH]2)cn1 [Example 65] |
| 100% | 1 to 100 nM |  | O=c1[nH]c(Cc2cc(F)ccc2-c2cccnc2)nc2c1cnn2C1CCC(F)(F)CC1 [Example 66] |
| 97% | 101 to 1500 nM |  | COc1ccc(-c2cc(F)ccc2Cc2nc3c(cnn3C3CCC(F)(F)CC3)c(=O)[nH]2)cn1 [Example 69] |
| 98% | 1 to 100 nM |  | O=c1[nH]c(Cc2ccc(F)cc2-c2cccnc2)nc2c1cnn2C1CCC(F)(F)CC1 [Example 71] |
| 100% | 1 to 100 nM |  | O=c1[nH]c(Cc2cc(F)ccc2-c2ccc(F)nc2)nc2c1cnn2C1CCC(F)(F)CC1 [Example 72-7] |
| 98% | 1 to 100 nM |  | Cc1ccc(-c2ccccc2Cc2nc3c(cnn3C3CCC(F)(F)CC3)c(=O)[nH]2)cn1 [Example 73] |
| 98% | 1 to 100 nM |  | O=c1[nH]c(Cc2ccccc2-c2ccnc(F)c2)nc2c1cnn2C1CCC(F)(F)CC1 [Example 74] |
| 101% | 1 to 100 nM |  | O=c1[nH]c(Cc2ccccc2-c2ccc(N3CCOCC3)nc2)nc2c1cnn2C1CCC(F)(F)CC1 [Example 75] |
| 99% | 1 to 100 nM |  | O=c1[nH]c(Cc2ccccc2-c2cncnc2)nc2c1cnn2C1CCC(F)(F)CC1 [Example 76] |
| 97% | 1 to 100 nM |  | O=c1[nH]c(Cc2ccccc2CCCN2CCOCC2)nc2c1cnn2C1CCC(F)(F)CC1 [Example 78] |
| 91% | 101 to 1500 nM |  | O=C(Cc1ccccc1Cc1nc2c(cnn2C2CCC(F)(F)CC2)c(=O)[nH]1)N1CCOCC1 [Example 82] |
